Laboratory results taken from patent US6248739A, “Quinolinecarboxamides as antiviral agents” (Pharmacia & Upjohn Company, priority 1999, dated 2001).

Biological target: T1, HCMV polymerase (Human cytomegalovirus, UniProt P08546)
T1 construct: made in house; host or cells: recombinant baculovirus-infected SF-9 insect cells
Assay: biochemical
Conditions: HCMV polymerase; SPA; modified assay: compounds in 100% DMSO, 4.5 mM DTT
Procedure: The HCMV polymerase assay is performed using a scintillation proximity assay (SPA) as described in several references, such as N. D. Cook, et al., Pharmaceutical Manufacturing International, pages 49-53 (1992); K. Takeuchi, Laboratory Practice, September issue (1992); U.S. Pat. No. 4,568,649 (1986); which are incorporated by reference herein. Reactions are performed in 96-well plates. The assay is conducted in 100 μl volume with 5.4 mM HEPES (pH 7.5), 11.7 mM KCl, 4.5 mM MgCl2, 0.36 mg/ml BSA, and 90 nM ^3 H-dTTP. Assays are run with and without CHAPS, (3-[(3-Cholamidopropyl)dimethylammonio]-1-propane-sulfonate) at a final concentration of 2 mM. HCMV polymerase is diluted in enzyme dilution buffer containing 50% glycerol, 250 mM NaCl, 10 mM HEPES (pH 7.5), 100 μg/ml BSA, and 0.01% sodium azide. The HCMV polymerase, which is expressed in recombinant baculovirus-infected SF-9 cells and purified according to literature procedures, is added at 10% (or 10 μl) of the final reaction volume, i.e., 100 μl. Compounds are diluted in 50% DMSO and 10 μl are added to each well. Control wells contain an equivalent concentration of DMSO. Unless noted otherwise, reactions are initiated via the addition of 6 nM biotinylated poly(dA)-oligo(dT) template/primer to reaction mixtures containing the enzyme, substrate, and compounds of interest. Plates are incubated in a 25 C. or 37 C. H2 O bath and terminated via the addition of 40 μl/reaction of 0.5 M EDTA (pH 8) per well. Reactions are terminated within the time-frame during which substrate incorporation is linear and varied depending upon the enzyme and conditions used, i.e., 30 min. for HCMV polymerase. Ten μl of streptavidin-SPA beads (20 mg/ml in PBS/10% glycerol) are added following termination of the reaction. Plates are incubated 10 min. at 37 C., then equilibrated to room temperature, and counted on a Packard Topcount. Linear regressions are performed and IC50 's are calculated using computer software.
A modified version of the above HCMV polymerase assay is performed as described above, but with the following changes: Compounds are diluted in 100% DMSO until final dilution into assay buffer. In the previous assay, compounds are diluted in 50% DMSO. 4.5 mM dithiotherotol (DTT) is added to the polymerase buffer.

T1 sequence (P08546 whole entry): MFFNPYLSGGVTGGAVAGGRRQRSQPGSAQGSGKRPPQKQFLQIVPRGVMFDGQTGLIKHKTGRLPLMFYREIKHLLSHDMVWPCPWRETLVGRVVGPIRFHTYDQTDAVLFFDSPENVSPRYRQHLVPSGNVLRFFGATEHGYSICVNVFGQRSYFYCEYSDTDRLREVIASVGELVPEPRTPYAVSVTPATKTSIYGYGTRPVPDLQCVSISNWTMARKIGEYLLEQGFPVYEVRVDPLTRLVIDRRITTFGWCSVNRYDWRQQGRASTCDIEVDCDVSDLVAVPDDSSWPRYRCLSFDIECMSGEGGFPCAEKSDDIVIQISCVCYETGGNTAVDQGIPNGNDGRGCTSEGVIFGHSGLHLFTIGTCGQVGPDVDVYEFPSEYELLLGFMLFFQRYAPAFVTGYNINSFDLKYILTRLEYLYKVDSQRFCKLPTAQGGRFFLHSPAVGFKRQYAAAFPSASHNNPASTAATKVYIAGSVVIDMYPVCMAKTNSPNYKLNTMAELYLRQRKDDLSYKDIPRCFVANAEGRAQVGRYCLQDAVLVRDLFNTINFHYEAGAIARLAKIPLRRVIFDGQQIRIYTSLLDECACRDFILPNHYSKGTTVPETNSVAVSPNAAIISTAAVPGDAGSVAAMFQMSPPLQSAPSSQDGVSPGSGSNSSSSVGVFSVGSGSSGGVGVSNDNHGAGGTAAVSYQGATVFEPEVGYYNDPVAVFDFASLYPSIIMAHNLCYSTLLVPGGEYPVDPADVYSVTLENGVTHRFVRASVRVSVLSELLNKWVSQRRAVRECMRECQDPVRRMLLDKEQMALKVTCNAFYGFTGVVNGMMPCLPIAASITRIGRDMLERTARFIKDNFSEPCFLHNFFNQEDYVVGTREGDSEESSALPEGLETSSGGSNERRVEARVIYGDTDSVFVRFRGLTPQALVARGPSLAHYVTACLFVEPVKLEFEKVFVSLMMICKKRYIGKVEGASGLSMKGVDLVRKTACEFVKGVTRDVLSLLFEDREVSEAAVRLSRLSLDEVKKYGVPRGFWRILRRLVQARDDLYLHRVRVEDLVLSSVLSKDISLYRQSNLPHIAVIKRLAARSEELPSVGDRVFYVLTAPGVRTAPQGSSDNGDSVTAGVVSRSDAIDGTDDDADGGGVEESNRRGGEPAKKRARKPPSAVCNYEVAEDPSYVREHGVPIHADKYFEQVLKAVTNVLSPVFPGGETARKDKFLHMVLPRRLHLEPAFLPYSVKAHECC

Row | IC50 [µM] | Structure (SMILES)
1 | 0.31 | Cn1cc(C(=O)NCc2ccc(Cl)cc2)c(=O)c2cc(CC3CCOCC3)ccc21 [Example 98, N-(4-Chlorobenzyl)-1-methyl-4-oxo-6-(tetrahydro-2H-pyran-4-ylmethyl)-1,4-dihydro-3-quinolinecarboxamide]
2 | 9.3 | Cn1cc(C(=O)NCc2ccc(Cl)cc2)c(=O)c2cc(CN(CCO)CCO)ccc21 [Example 44, 6-((Bis(2-hydroxyethyl)amino)methyl)-N-(4-chlorobenzyl)-1-1-methyl-4-oxo-1,4-dihydro-3-quinolinecarboxamide.]
3 | 1.8 | CC(C)(C)OC(=O)Cn1cc(C(=O)NCc2ccc(Cl)cc2)c(=O)c2cc(C#CCO)ccc21 [Example 28, tert-Butyl 2-[3-{[(4-chlorobenzyl)amino]carbonyl}-6-(3-hydroxy-1-propynyl)-4-oxo-1(4H)-quinolinyl]acetate]
4 | 1.5 | Cn1cc(C(=O)NCc2ccc(Cl)cc2)c(=O)c2cccc(C#CCCO)c21 [Example 97, N-(4-Chlorobenzyl)-8-(4-hydroxy-1-butynyl)-1-methyl-4-oxo-1,4-dihydro-3-quinolinecarboxamide]
5 | 1.7 | CC(C)n1cc(C(=O)NCc2ccc(Cl)cc2)c(=O)c2cc(C#CCO)ccc21 [Example 1, N-(4-Chlorobenzyl)-6-(3-hydroxy-1-propynyl)-1-isopropyl-4-oxo-1,4-dihydro-3-quinolinecarboxamide]
6 | 0.95 | O=C(NCc1ccc(Cl)cc1)c1cn(CCO)c2ccc(C#CCO)cc2c1=O [Example 30, N-(4-Chlorobenzyl)-1-(2-hydroxyethyl)-6-(3-hydroxy-1-propynyl)-4-oxo-1,4-dihydro-3-quinolinecarboxamide]
7 | 0.81 | Cn1cc(C(=O)NCc2ccc(Cl)cc2)c(=O)c2cc(/C=C/CO)ccc21 [Example 22, N-(4-chlorobenzyl)-6-[(E)-3-hydroxy-1-propenyl]-1-methyl-4-oxo-1,4-dihydro-3-quinolinecarboxamide]
8 | 4.1 | O=C(NCc1ccc(Cl)cc1)c1cn(CCCN2CCCCC2)c2ccc(C#CCO)cc2c1=O [Example 15, N-(4-Chlorobenzyl)-6-(3-hydroxy-1-propynyl)-1-[3-(1-piperidinyl)propyl]-4-oxo-1,4-dihydro-3-quinolinecarboxamide]
9 | 13.6 | Cn1cc(C(=O)NCc2ccc(Cl)cc2)c(=O)c2cc(CN3C[C@@H]4C[C@H]3CO4)ccc21 [Example 48, N-(4-Chlorobenzyl)-1-methyl-6-(2-oxa-5-azabicyclo(2.2. 1]-hept-5-ylmethyl)-4-oxo-1,4-dihydro-3-quinolinecarboxamide]
10 | 1 | Cn1cc(C(=O)NCc2ccc(Cl)cc2)c(=O)c2cc(C#CCO)cc(F)c21 [Example 8, N-(4-Chlorobenzyl)-8-fluoro-6-(3-hydroxy-1-propynyl)-1-methyl-4-oxo-1,4-dihydro-3-quinolinecarboxamide]

Further lines, the compound ahead of its results:

Row | Structure (SMILES) | IC50 [µM]
11 | CCSCCn1cc(C(=O)NCc2ccc(Cl)cc2)c(=O)c2cc(CN3CCOCC3)ccc21 [Example 60, N-(4-Chlorobenzyl)-1-[2-(ethylsulfanyl)ethyl]-6-(4-morpholinylmethyl)-4-oxo-1,4-dihydro-3-quinolinecarboxamide] | 1.1
12 | Cn1cc(C(=S)NCc2ccc(Cl)cc2)c(=O)c2cc(CN3CCOCC3)ccc21 [Example 95, N-(4-Chlorobenzyl)-1-methyl-6-(4-morpholinylmethyl)-4-oxo-1,4-dihydro-3-quinolinecarbothioamide] | 0.3
13 | O=C(NCc1ccc(Cl)cc1)c1cn(CCCSCCCO)c2ccc(CN3CCOCC3)cc2c1=O [Example 66, N-(4-Chlorobenzyl)-1-{3-[(3-hydroxypropyl)sulfanyl]propyl}-6-(4-morpholinylmethyl)-4-oxo-1,4-dihydro-3-quinolinecarboxamide] | 1.1
14 | O=C(NCc1ccc(Cl)cc1)c1cn(C[S+]([O-])c2ccccc2)c2ccc(CN3CCOCC3)cc2c1=O (stereo not drawn) [Example 81, N-(4-Chlorobenzyl)-6-(4-morpholinylmethyl)-4-oxo-1-[(phenylsulfinyl)methyl]-1,4-dihydro-3-quinolinecarboxamide] | 0.35
15 | Cn1cc(C(=O)NCc2ccc(Cl)cc2)c(=O)c2cc(CN3CCCOCC3)ccc21 [Example 46, N-(4-Chlorobenzyl)-1-methyl-6-(1,4-oxazepan-4-ylmethyl)-4-oxo-1,4-dihydro-3-quinolinecarboxamide] | 5.5
16 | CN(CCS(=O)(=O)O)C(=O)CCCCCCC(=O)OCC#Cc1ccc2c(c1)c(=O)c(C(=O)NCc1ccc(Cl)cc1)cn2C [Example 37, Sodium 2-[(8-{[3-(3-{[(^4-chlorobenzyl)amino]carbonyl}-1-methyl-4-oxo-1,4-dihydro-6-quinolinyl)-2-propynyl]oxy}-8-oxooctanoyl)(methyl)amino]-1-ethanesulfonate] | > 20
17 | COCCOCCn1cc(C(=O)NCc2ccc(Cl)cc2)c(=O)c2cc(CN(C)CC#N)ccc21 [Example 86, N-(4-Chlorobenzyl)-6-{[(cyanomethyl)(methyl)amino]methyl}-1-[2-(2-methoxyethoxy)ethyl]-4-oxo-1,4-dihydro-3-quinolinecarboxamide] | 2.5
18 | COCCOCCn1cc(C(=O)NCc2ccc(Cl)cc2)c(=O)c2cc(CN(C)CC(O)c3ccccc3)ccc21 (stereo not drawn) [Example 89, N-(4-Chlorobenzyl)-6-{[(2-hydroxy-2-phenylethyl)(methyl)amino]methyl}-1-[2-(2-methoxyethoxy)ethyl]-4-oxo-1,4-dihydro-3-quinoline-carboxamide] | 6.7
19 | CN1CCN(n2cc(C(=O)NCc3ccc(Cl)cc3)c(=O)c3cc(CN4CCOCC4)ccc32)CC1 [Example 113, N-(4Chlorobenzyl)-1-(4methyl-1-piperazinyl)-6-(4-morpholinylmethyl)-4-oxo-1,4-dihydro-3-quinolinecarboxamide] | 0.64
20 | COC[C@H]1CCCN1n1cc(C(=O)NCc2ccc(Cl)cc2)c(=O)c2cc(CN3CCOCC3)ccc21 [Example 116, N-(4-Chlorobenzyl)-1-[(2R)-2-(methoxymethyl)pyrrolidinyl]-6-(4-morpholinylmethyl)-4-oxo-1,4-dihydro-3-quinolinecarboxamide] | 14
21 | COCCOCCn1cc(C(=O)NCc2ccc(Cl)cc2)c(=O)c2cc(CN3CCC(=O)CC3)ccc21 [Example 85, N-(4-Chlorobenzyl)-1-[2-(2-methoxyethoxy)ethyl]-4-oxo-6-[(4-oxo-1-piperidinyl)methyl]-1,4-dihydro-3-quinolinecarboxamide] | 6
22 | Cn1cc(C(=O)NCc2ccc(Cl)cc2)c(=O)c2cc(CCCOP(=O)(OC(C)(C)C)OC(C)(C)C)ccc21 [Example 32, Di(tert-butyl) 3-(3-{[(4-chlorobenzyl)amino]carbonyl}-1-methyl-4-oxo-1,4-dihydro-6-quinolinyl)propyl phosphate] | 27.2
23 | COn1cc(C(=O)NCc2ccc(Cl)cc2)c(=O)c2ccccc21 [Example 123, N-(4-Chlorobenzyl)-1-methoxy-4-oxo-1,4-dihydro-3-quinolinecarboxamide] | 8.2
24 | O=C(OCCOCn1cc(C(=O)NCc2ccc(Cl)cc2)c(=O)c2cc(CN3CCOCC3)ccc21)c1ccccc1 [Example 106, 2-{[3-{[(4-Chlorobenzyl)amino]carbonyl}-6-(4-morpholinylmethyl)-4-oxo-1(4H)-quinolinyl]methoxy}ethyl benzoate] | 3.1
